Measured values from patent US20180280377A1, “Imidazo[4,5-c]quinolin-2-one Compounds and Their Use in Treating Cancer” (ASTRAZENECA AB, priority 2015, published 2018).

Experiments:
Type in all cases: cell-based
ATM = target: T1, ATM (Homo sapiens, UniProt Q13315); experiment: ATM cellular potency assay (pATM Ser1981 in irradiated HT29 cells); details: 1 h compound, X-ray irradiation, pATM (Ser1981); Table 2; read-out: Assay a) ATM Cell IC50
T1 construct: endogenous in cells; host or cells: HT29 cells (ECACC #85061109)
Description: (§1) The following assays were used to measure the effects of the compounds of the present invention: a) ATM cellular potency assay; b) PI3K cellular potency assay; c) mTOR cellular potency assay; d) ATR cellular potency assay. During the description of the assays, generally: • i. […] IC50 values were calculated using a smart fitting model in Genedata.
Most ATM molecules in the cell are rapidly phosphorylated on this site after doses of radiation as low as 0.5 Gy, and binding of a phosphospecific antibody is detectable after the introduction of only a few DNA double-strand breaks in the cell.
The rationale of the pATM assay is to identify inhibitors of ATM in cells. HT29 cells are incubated with test compounds for 1 h prior to X-ray-irradiation. 1 h later the cells are fixed and stained for pATM (Ser1981). The fluorescence is read on the arrayscan imaging platform.
The following morning compounds of Formula (I) in 100% DMSO were added to assay plates by acoustic dispensing. After 1 h incubation at 37° C. and 5% CO2, plates (up to 6 at a time) were irradiated using the X-RAD 320 instrument (PXi) with equivalent to 600 cGy. Plates were returned to the incubator for a further 1 h. Then cells were fixed by adding 20 μl of 3.7% formaldehyde in PBS solution and incubating for 20 minutes at r.t. before being washed with 50μl/well PBS, using a Biotek EL405 plate washer. Then 20 μl of 0.1% Triton X100 in PBS was added and incubated for 20 minutes at r.t., to permeabalise cells. Then the plates were washed once with 50 μl/well PBS, using a Biotek EL405 plate washer.
After 1 h incubation at r.t., the plates were washed three times with 50 μl/well PBS, using a Biotek EL405 plate washer, and plates were sealed and kept in PBS at 4° C. until read. Plates were read using an ArrayScan VTI instrument, using an XF53 filter with 10× objective.

ATR = target: T2, ATR (Homo sapiens, UniProt Q13535); experiment: ATR cellular potency assay (pChk1 Ser345 in HT29 cells after 4NQO); details: pChk1 (Ser 345); Table 2; read-out: Assay b) ATR Cell IC50
T2 construct: endogenous in cells; host or cells: HT29 cells (ECACC #85061109)
T2 sequence (Q13535 whole entry): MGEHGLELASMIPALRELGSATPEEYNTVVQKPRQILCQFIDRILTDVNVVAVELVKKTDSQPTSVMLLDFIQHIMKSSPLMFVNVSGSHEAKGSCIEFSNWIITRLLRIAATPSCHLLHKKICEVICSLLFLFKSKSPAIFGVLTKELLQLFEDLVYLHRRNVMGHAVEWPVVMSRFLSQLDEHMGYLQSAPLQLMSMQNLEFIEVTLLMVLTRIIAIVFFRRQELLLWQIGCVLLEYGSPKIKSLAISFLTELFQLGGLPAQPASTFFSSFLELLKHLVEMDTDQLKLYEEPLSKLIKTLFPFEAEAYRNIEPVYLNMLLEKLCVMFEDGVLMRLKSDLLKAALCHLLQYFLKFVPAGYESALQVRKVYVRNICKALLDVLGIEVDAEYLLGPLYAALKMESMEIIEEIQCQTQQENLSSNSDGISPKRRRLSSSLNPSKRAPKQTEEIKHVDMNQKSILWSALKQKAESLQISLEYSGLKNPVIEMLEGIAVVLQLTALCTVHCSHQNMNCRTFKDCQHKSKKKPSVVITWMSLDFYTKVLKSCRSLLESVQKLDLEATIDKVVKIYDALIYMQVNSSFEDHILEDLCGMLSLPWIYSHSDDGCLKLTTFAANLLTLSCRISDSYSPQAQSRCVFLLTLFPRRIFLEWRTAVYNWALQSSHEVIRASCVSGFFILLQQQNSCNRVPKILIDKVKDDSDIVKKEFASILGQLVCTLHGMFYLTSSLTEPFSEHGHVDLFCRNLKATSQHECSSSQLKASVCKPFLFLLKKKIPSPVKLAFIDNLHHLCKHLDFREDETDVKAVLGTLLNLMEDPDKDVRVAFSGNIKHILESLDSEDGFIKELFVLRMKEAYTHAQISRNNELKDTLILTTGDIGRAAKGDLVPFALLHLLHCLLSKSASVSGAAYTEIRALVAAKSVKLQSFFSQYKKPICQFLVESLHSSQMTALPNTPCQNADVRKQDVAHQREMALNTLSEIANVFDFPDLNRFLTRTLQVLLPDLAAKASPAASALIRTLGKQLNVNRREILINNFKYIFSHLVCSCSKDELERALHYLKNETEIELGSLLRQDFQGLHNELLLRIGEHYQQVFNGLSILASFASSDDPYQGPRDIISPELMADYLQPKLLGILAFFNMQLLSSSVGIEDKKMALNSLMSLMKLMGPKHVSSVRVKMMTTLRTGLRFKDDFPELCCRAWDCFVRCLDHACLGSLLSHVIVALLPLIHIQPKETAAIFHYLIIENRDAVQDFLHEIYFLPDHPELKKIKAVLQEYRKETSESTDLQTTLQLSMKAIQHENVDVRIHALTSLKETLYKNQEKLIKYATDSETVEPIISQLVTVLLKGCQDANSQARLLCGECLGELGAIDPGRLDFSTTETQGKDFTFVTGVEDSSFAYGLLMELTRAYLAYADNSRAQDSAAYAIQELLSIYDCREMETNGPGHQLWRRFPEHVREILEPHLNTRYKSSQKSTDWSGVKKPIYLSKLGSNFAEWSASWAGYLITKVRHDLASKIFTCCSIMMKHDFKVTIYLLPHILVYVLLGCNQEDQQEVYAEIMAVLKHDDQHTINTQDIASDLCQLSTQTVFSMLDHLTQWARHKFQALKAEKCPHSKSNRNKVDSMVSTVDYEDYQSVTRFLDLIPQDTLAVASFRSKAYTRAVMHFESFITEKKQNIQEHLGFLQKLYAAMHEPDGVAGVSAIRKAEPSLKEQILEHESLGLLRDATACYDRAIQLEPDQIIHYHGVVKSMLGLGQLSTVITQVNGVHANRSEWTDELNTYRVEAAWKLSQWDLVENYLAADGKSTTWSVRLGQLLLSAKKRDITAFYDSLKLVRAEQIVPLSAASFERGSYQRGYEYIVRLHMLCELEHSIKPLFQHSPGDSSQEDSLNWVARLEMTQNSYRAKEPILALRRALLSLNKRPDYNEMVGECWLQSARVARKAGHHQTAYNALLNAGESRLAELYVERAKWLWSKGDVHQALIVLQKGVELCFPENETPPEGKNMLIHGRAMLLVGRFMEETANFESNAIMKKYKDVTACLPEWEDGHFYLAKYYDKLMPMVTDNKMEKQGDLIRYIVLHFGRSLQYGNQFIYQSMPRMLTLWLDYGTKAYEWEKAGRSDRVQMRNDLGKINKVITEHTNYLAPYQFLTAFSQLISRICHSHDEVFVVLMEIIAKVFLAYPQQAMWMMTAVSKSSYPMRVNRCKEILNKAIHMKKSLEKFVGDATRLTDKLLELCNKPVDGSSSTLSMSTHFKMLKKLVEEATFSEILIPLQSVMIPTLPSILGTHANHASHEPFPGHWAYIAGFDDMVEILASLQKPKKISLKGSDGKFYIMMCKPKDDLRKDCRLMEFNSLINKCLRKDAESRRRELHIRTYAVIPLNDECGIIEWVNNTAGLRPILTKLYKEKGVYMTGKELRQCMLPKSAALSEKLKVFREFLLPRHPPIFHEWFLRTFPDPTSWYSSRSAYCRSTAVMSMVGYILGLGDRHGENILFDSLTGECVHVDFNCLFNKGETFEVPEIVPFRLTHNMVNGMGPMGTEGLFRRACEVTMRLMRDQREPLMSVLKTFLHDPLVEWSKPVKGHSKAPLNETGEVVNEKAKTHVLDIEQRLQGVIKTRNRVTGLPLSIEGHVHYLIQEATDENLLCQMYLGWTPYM
T2 sequence (Q8WXE1 whole entry partner): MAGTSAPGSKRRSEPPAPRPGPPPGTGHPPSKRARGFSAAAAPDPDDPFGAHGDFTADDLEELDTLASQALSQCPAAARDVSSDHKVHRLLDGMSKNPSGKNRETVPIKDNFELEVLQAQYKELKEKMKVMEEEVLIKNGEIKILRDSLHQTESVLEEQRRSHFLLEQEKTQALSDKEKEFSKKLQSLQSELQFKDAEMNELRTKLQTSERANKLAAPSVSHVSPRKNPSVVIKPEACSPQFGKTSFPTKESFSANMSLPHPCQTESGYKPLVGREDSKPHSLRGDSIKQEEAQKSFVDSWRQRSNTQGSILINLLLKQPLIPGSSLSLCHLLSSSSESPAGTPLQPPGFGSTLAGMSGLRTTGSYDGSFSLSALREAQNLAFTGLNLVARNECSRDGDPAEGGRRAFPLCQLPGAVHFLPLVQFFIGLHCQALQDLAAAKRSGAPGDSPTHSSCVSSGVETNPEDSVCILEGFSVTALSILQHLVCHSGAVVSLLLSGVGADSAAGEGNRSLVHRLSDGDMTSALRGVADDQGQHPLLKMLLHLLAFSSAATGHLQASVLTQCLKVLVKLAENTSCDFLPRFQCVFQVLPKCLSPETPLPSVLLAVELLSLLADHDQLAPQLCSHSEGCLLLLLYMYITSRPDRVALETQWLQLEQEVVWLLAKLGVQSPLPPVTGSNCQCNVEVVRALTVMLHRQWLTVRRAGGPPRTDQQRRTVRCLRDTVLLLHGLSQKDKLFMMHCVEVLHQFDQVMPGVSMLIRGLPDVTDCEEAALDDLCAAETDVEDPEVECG
Description: as §1
ATR is a PI3-kinase-related kinase which phosphorylates multiple substrates on serine or threonine residues in response to DNA damage during or replication blocks. Chk1, a downstream protein kinase of ATR, plays a key role in DNA damage checkpoint control. Activation of Chk1 involves phosphorylation of Ser317 and Ser345 (the latter regarded as the preferential target for phosphorylation/activation by ATR).
The following morning compound of Formula (I) in 100% DMSO were added to assay plates by acoustic dispensing. After 1 h incubation at 37° C. and 5% CO2, 40 nl of 3 mM 4NQO in 100% DMSO was added to all wells by acoustic dispensing, except minimum control wells which were left untreated with 4NQO to generate a null response control. Plates were returned to the incubator for a further 1 h. Then cells were fixed by adding 20 μl of 3.7% formaldehyde in PBS solution and incubating for 20 mins at r.t. Then […] of 0.1% Triton X100 in PBS was added and incubated for 10 minutes at r.t., to permeabalise cells. Then the plates were washed once with […] PBS, using a Biotek EL405 plate washer.
After 2 h incubation at r.t., the plates were washed three times with […] PBS, using a Biotek EL405 plate washer, and plates were then sealed with black plate seals until read. Plates were read using an ArrayScan VTI instrument, using an XF53 filter with 10× objective.

PI3Kα = PI3Kα (Homo sapiens, UniProt P42336); experiment: PI3K cellular potency assay (phospho-Akt T308 in BT474 cells, ELISA); details: 2 h, phospho-Akt (T308); Table 2; read-out: Assay c) PI3Kα Cell IC50
Description: as §1
This assay was used to measure PI3K-α inhibition in cells. PDK1 was identified as the upstream activation loop kinase of protein kinase B (Akt1), which is essential for the activation of PKB. Activation of the lipid kinase phosphoinositide 3 kinase (PI3K) is critical for the activation of PKB by PDK1.
Following ligand stimulation of receptor tyrosine kinases, PI3K is activated, which converts PIP2 to PIP3, which is bound by the PH domain of PDK1 resulting in recruitment of PDK1 to the plasma membrane where it phosphorylates AKT at Thr308 in the activation loop.
The aim of this cell-based mode of action assay is to identify compounds that inhibit PDK activity or recruitment of PDK1 to membrane by inhibiting PI3K activity. Phosphorylation of phospho-Akt (T308) in BT474c cells following treatment with compounds for 2 h is a direct measure of PDK1 and indirect measure of PI3K activity.
The following morning compounds in 100% DMSO were added to assay plates by acoustic dispensing.
Plates were incubated over night at 4° C. The next day the plates were washed with PBS buffer containing 0.05% Tween 20 and further incubated with a mouse monoclonal anti-phospho AKT T308 for 2 h. Plates were washed again as above before addition of a horse anti-mouse-HRP conjugated secondary antibody. […] The developed fluorescent product was stopped after 60 minutes by addition of Stop solution to the wells.

mTOR = target: T3, mTOR (Homo sapiens, UniProt P42345); experiment: mTOR cellular potency assay (phospho-AKT Ser473 in MDA-MB-468 cells); details: MDA-MB-468 cells, 2 h, phospho-AKT Ser473; Table 2; read-out: Assay d) mTOR Cell IC50
T3 construct: phosphorylation of the Akt protein at Ser473 (AKT lies downstream of PI3Kα in the signal transduction pathway) in the MDA-MB-468 cells; endogenous in cells; host or cells: MDA-MB-468 cells (ATCC HTB 132)
Source text: The following assays were used to measure the effects of the compounds of the present invention: a) ATM cellular potency assay; b) PI3K cellular potency assay; c) mTOR cellular potency assay; d) ATR cellular potency assay. During the description of the assays, generally: • i. The following abbreviations have been used: 4NQO=4-Nitroquinoline N-oxide; Ab=Antibody; BSA=Bovine Serum Albumin; CO2=Carbon Dioxide; DMEM=Dulbecco's Modified Eagle Medium; DMSO=Dimethyl Sulphoxide; EDTA=Ethylenediaminetetraacetic Acid; EGTA=Ethylene Glycol Tetraacetic Acid; ELISA=Enzyme-linked Immunosorbent Assay; EMEM=Eagle's Minimal Essential Medium; FBS=Foetal Bovine Serum; h=H(s); HRP=Horseradish Peroxidase; i.p.=intraperitoneal; PBS=Phosphate buffered saline; PBST=Phosphate buffered saline/Tween; TRIS=Tris(Hydroxymethyl)aminomethane; MTS reagent: [3-(4,5-dimethylthiazol-2-yl)-5-(3-carboxymethoxyphenyl)-2-(4-sulfophenyl)-2H-tetrazolium, inner salt, and an electron coupling reagent (phenazine methosulfate) PMS; s.c. sub-cutaneously. • ii. IC50 values were calculated using a smart fitting model in Genedata.
This assay was used to measure mTOR inhibition in cells. The aim of the phospho-AKT cell based mechanism of action assay using the Acumen Explorer is to identify inhibitors of either PI3Kα or mTOR-Rictor (Rapamycin insensitive companion of mTOR). This is measured by any decrease in the phosphorylation of the Akt protein at Ser473 (AKT lies downstream of PI3Kα in the signal transduction pathway) in the MDA-MB-468 cells following treatment with compound.
MDA-MB-468 cells (human breast adenocarcinoma #ATCC HTB 132) were seeded at 1500 cells/well in 40 μl of DMEM containing 10% FBS and 1% glutamine into Greiner 384 well black flat-bottomed plates. Cell plates were incubated for 18 h in a 37° C. incubator before dosing with compounds of Formula (I) in 100% DMSO using acoustic dispensing. Compounds were dosed in a 12 point concentration range into a randomised plate map. Control wells were generated either by dosing of 100% DMSO (max signal) or addition of a reference compound (a PI3K-62 inhibitor) that completely eliminated the pAKT signal (min control). Plates were incubated at 37° C. for 2 h; cells were then fixed by the addition of […] of a 3.7% formaldehyde solution. After 30 minutes the plates were washed with PBS using a Tecan PW384 plate washer. Wells were blocked and cells permeabilised with the addition of 40 μl of PBS containing 0.5% Tween20 and 1% Marvel™ (dried milk powder) and incubated for 60 minutes at r.t. The plates were washed with PBS containing 0.5% (v/v) Tween20 and 20 μl rabbit anti-phospho AKT Ser473 (Cell Signalling Technologies, #3787) in same PBS-Tween+1% MarvelTM was added and incubated overnight at 4° C.
Plates were washed 3 times with PBS+0.05% Tween 20 using a Tecan PW384. 20 μl of secondary antibody Alexa Fluor 488 anti-Rabbit (Molecular Probes, # A11008) diluted in PBS+0.05% Tween20 containing 1% Marvel™ was added to each well and incubated for 1 h at r.t. Plates were washed three times as before then 20 μl PBS added to each well and plates sealed with a black plate sealer.
The plates were read on an Acumen plate reader as soon as possible, measuring green fluorescence after excitation with 488 nm laser. Using this system IC50 values were generated and quality of plates was determined by control wells. Reference compounds were run each time to monitor assay performance.

IC50 (ATM) [nM]	IC50 (ATR) [nM]	IC50 (PI3Kα) [nM]	IC50 (mTOR) [nM]	SMILES
0.332	> 25700	1090	–	CO[C@H]1CC[C@H](n2c(=O)n(C)c3cnc4ccc(-c5ccc(N6CCC(N(C)C)CC6)nc5)cc4c32)C1 (single isomer, unassigned) [Example 33, 8-[6-[4-(dimethylamino)-1-piperidyl]-3-pyridyl]-1-[trans-3-methoxycyclopentyl]-3-methyl-imidazo[4,5-c]quinolin-2-one]
–	–	470	–	CC(C)n1c(=O)n(C)c2cnc3ccc(-c4ccc(N5CC[C@@H](N(C)C)C5)nc4)cc3c21 [Example 1, 8-[6-[(3R)-3-(Dimethylamino)pyrrolidin-1-yl]-3-pyridyl]-1-isopropyl-3-methyl-imidazo[4,5-c]quinolin-2-one]
–	> 30000	19300	–	CC(C)n1c(=O)n(C)c2cnc3cc(F)c(-c4ccc(N5CCC(N(C)C)CC5)nc4)cc3c21 [Example 3, 8-[6-[4-(dimethylamino)-1-piperidyl]-3-pyridyl]-7-fluoro-1-isopropyl-3-methyl-imidazo[4,5-c]quinolin-2-one]
–	–	243	–	CC(C)n1c(=O)n(C)c2cnc3ccc(-c4ccc(N5CC(N(C)C)C5)nc4)cc3c21 [Example 4, 8-[6-[3-(dimethylamino)azetidin-1-yl]-3-pyridyl]-1-isopropyl-3-methyl-imidazo[4,5-c]quinolin-2-one]
0.395	> 30000	–	2000	CN(C)C1CCN(c2ccc(-c3ccc4ncc5c(c4c3)n([C@@H]3CCCOC3)c(=O)n5C)cn2)CC1 [Example 34, 8-[6-[4-(dimethylamino)-1-piperidyl]-3-pyridyl]-3-methyl-1-[(3R)-tetrahydropyran-3-yl]imidazo[4,5-c]quinolin-2-one]
1.4	> 30000	–	16500	CN(C)C1CCN(c2ccc(-c3ccc4ncc5c(c4c3)n([C@H]3CCCOC3)c(=O)n5C)cn2)CC1 [Example 35, 8-[6-[4-(dimethylamino)-1-piperidyl]-3-pyridyl]-3-methyl-1[(3S)-tetrahydropyran-3-yl]imidazo[4,5-c]quinolin-2-one]
3.24	> 30000	–	22100	CN(C)C1CCN(c2ccc(-c3cc4c(cc3F)ncc3c4n([C@@H]4CCCOC4)c(=O)n3C)cn2)CC1 [Example 40, 8-[6-[4-(dimethylamino)-1-piperidyl]-3-pyridyl]-7-fluoro-3-methyl-1-[(3R)-tetrahydropyran-3-yl]imidazo[4,5-c]quinolin-2-one]
72	> 30000	–	–	CO[C@H]1C[C@@H](n2c(=O)n(C)c3cnc4cc(F)c(-c5ccc(N6CCC[C@@H](N(C)C)C6)nc5)cc4c32)C1 [Example 43, 8-[6-[(3R)-3-(dimethylamino)-1-piperidyl]-3-pyridyl]-7-fluoro-1-(cis-3-methoxycyclobutyl)-3-methyl-imidazo[4,5-c]quinolin-2-one]
2.25	> 21800	–	–	CNC1CCN(c2ccc(-c3ccc4ncc5c(c4c3)n([C@@H]3CCCOC3)c(=O)n5C)cn2)CC1 [Example 58, 3-methyl-8-[6-[4-(methylamino)-1-piperidyl]-3-pyridyl]-1-[(3R)-tetrahydropyran-3-yl]imidazo[4,5-c]quinolin-2-one]
1.38	> 30000	–	–	CNC1CCN(c2ccc(-c3ccc4ncc5c(c4c3)n([C@H]3CCCOC3)c(=O)n5C)cn2)CC1 [Example 59, 3-methyl-8-[6-[4-(methylamino)-1-piperidyl]-3-pyridyl]-1-[(3S)-tetrahydropyran-3-yl]imidazo[4,5-c]quinolin-2-one]
0.753	> 25500	–	–	CNC1CCN(c2ccc(-c3ccc4ncc5c(c4c3)n(C3CCOCC3)c(=O)n5C)cn2)CC1 [Example 61, 3-methyl-8-[6-[4-(methylamino)-1-piperidyl]-3-pyridyl]-1-tetrahydropyran-4-yl-imidazo[4,5-c]quinolin-2-one]
